Test results taken from the NIST ThermoML archive (doi:10.1021/je200673a).
Numbers after ± are expanded uncertainties.

What was measured:
[1] = Crystal; Adiabatic calorimetry
[2] = Molar enthalpy of transition or fusion; settings: Crystal; Adiabatic calorimetry

With C(#Cc1ccccc1)c1ccccc1 [1,2-diphenylethyne] the Triple point temperature [1] was 332.02 ± 0.05 K and the “Molar enthalpy of transition or fusion” value [2] was 21.04 ± 0.19 kJ/mol.
